For 54 molecules, MIC and LD50 results are on record in ChEMBL document CHEMBL4330134, “Design, synthesis, and bioevaluation of a novel class of (E)-4-oxo-crotonamide derivatives as potent antituberculosis agents” (Bioorg Med Chem Lett, 2019).

Values after ≈ are worked out from the molar mass of the structure shown. A value given as a limit tells only on which side of the number the result lay.

For data set [1], the system named is Mycobacterium tuberculosis. Briefly: Antimycobacterial activity against Mycobacterium tuberculosis H37Rv ATCC 27294 after 4 days by microplate Alamar blue assay. To be noted: H37Rv ATCC 27294, 96 h. Format: functional.
Data set [2] in a line: Toxicity in po dosed BALB/c mouse. Format: organism-based. The settings on record: in vivo.
The test system of data set [3] is Mycobacterium tuberculosis. Put plainly: Antimycobacterial activity against Mycobacterium tuberculosis H37Rv ATCC 27294. Format: functional.
Data set [4] deals with Mycobacterium tuberculosis. Briefly: Antimycobacterial activity against Mycobacterium tuberculosis isolate 19806 after 4 days by microplate Alamar blue assay. Format: functional. To be noted: isolate 19806, 96 h.
In data set [5] the test system is Mycobacterium tuberculosis. Briefly: Antimycobacterial activity against Mycobacterium tuberculosis isolate 19675 after 4 days by microplate Alamar blue assay. Type of data set: functional. The settings on record: isolate 19675, 96 h.
In data set [6] the test system is Mycobacterium tuberculosis. Put plainly: Antimycobacterial activity against Mycobacterium tuberculosis isolate 11168 after 4 days by microplate Alamar blue assay. Type of data set: functional. The settings on record: isolate 11168, 96 h.
In data set [7] the test system is Mycobacterium tuberculosis. Briefly: Antimycobacterial activity against Mycobacterium tuberculosis isolate 19874 after 4 days by microplate Alamar blue assay. To be noted: isolate 19874, 96 h. Type of data set: functional.
In data set [8] the test system is Mycobacterium tuberculosis. Briefly: Antimycobacterial activity against Mycobacterium tuberculosis isolate 19769 after 4 days by microplate Alamar blue assay. Format: functional. To be noted: isolate 19769, 96 h.
Data set [9] deals with Mycobacterium tuberculosis. Briefly: Antimycobacterial activity against Mycobacterium tuberculosis isolate 19810 after 4 days by microplate Alamar blue assay. Type of data set: functional. The settings on record: isolate 19810, 96 h.
Data set [10] concerns Mycobacterium tuberculosis. Briefly: Antimycobacterial activity against Mycobacterium tuberculosis isolate 19809 after 4 days by microplate Alamar blue assay. Format: functional. The settings on record: isolate 19809, 96 h.
Data set [11] deals with Mycobacterium tuberculosis. Briefly: Antimycobacterial activity against Mycobacterium tuberculosis isolate 19852 after 4 days by microplate Alamar blue assay. Format: functional. To be noted: isolate 19852, 96 h.
The test system of data set [12] is Mycobacterium tuberculosis. Put plainly: Antimycobacterial activity against Mycobacterium tuberculosis isolate 19863 after 4 days by microplate Alamar blue assay. Type of data set: functional. The settings on record: isolate 19863, 96 h.
Data set [13] relates to Mycobacterium tuberculosis. Briefly: Antimycobacterial activity against Mycobacterium tuberculosis isolate 19805 after 4 days by microplate Alamar blue assay. Format: functional. To be noted: isolate 19805, 96 h.

`O=C(O)/C=C/C(=O)c1ccccc1` gave an MIC in data set [1] of over 4 µg/mL.
On to `O=C(O)/C=C/C(=O)c1ccc(Br)cc1`, for which the MIC in data set [1] is over 4 µg/mL.
`O=C(O)/C=C/C(=O)c1ccc(Cl)cc1Cl` yielded an MIC in data set [1] of over 4 µg/mL.
The same measure, in the same setting: for `COc1ccc(C(=O)/C=C/C(=O)O)cc1` the value was over 4 µg/mL; for `COC(=O)/C=C/C(=O)c1ccccc1`, 0.86 µg/mL (≈ 4.52 µM); for `CCOC(=O)/C=C/C(=O)c1ccccc1`, 0.82 µg/mL (≈ 4.02 µM).
Take `COC(=O)/C=C/C(=O)c1ccc(OC)cc1`: in [2], the LD50 amounted to 568 mg/kg. The MIC in data set [1] and in [3] was 0.25 µg/mL (≈ 1.14 µM) throughout.
The molecule `O=C(O)/C=C/C(=O)c1ccc(-c2ccccc2)cc1` gave an MIC in [1] of over 4 µg/mL.
Same read-out and setting: the same measure for `CCOC(=O)/C=C/C(=O)c1ccc(OCC)cc1`: 0.54 µg/mL (≈ 2.17 µM); for `CCOC(=O)/C=C/C(=O)c1cc(OC)ccc1OC`: 1.05 µg/mL (≈ 3.97 µM).
Turning to `COc1cccc(C(=O)/C=C/C(=O)O)c1`, the MIC in data set [1] is over 4 µg/mL.
In the case of `CN(C)C(=O)/C=C/C(=O)c1ccc(-c2ccccc2)cc1`, the MIC in data set [4] was determined as 0.23 µg/mL (≈ 0.823 µM); in data set [5] it was 0.45 µg/mL (≈ 1.61 µM); in data set [6], 0.05 µg/mL (≈ 0.179 µM); in data set [7], 0.23 µg/mL (≈ 0.823 µM); in data set [8], 0.43 µg/mL (≈ 1.54 µM); in [9] it was 0.12 µg/mL (≈ 0.43 µM). Besides, the MIC in [10] worked out at 0.48 µg/mL (≈ 1.72 µM); in data set [1] it was 0.125 µg/mL (≈ 0.447 µM); in [11] it was 0.19 µg/mL (≈ 0.68 µM); in data set [12], 0.23 µg/mL (≈ 0.823 µM); in data set [13] it was 0.25 µg/mL (≈ 0.895 µM).
`COc1ccc(C(=O)/C=C/C(=O)O)cc1OC` yielded an MIC in data set [1] of over 4 µg/mL.
Still for that read-out and setting: the same measure for `COC(=O)/C=C/C(=O)c1ccc2c(c1)CCO2`: 0.84 µg/mL (≈ 3.62 µM).
Still for that read-out and setting: the same measure for `COC(=O)/C=C/C(=O)C1CCCCC1`: 1.2 µg/mL (≈ 6.11 µM).
Take `COC(=O)/C=C/C(=O)c1ccc(C)cc1`: the lowest concentration to inhibit growth in data set [1] (MIC) was 0.37 µg/mL (≈ 1.81 µM).
The same measure, in the same setting: the same measure for `COC(=O)/C=C/C(=O)c1ccc(-c2ccccc2)cc1`: 0.2 µg/mL (≈ 0.751 µM).
In data set [1], `COC(=O)/C=C/C(=O)c1cccc(OC)c1` showed an MIC of 0.39 µg/mL (≈ 1.77 µM).
In the case of `COc1ccc(OC)c(C(=O)/C=C/C(=O)O)c1`, the MIC in [1] is over 4 µg/mL.
For `COC(=O)/C=C/C(=O)c1ccc(Oc2ccccc2)cc1`, in data set [1], the MIC is 0.87 µg/mL (≈ 3.08 µM).
On the same count and under the same terms, for `COC(=O)/C=C/C(=O)c1cc(OC)ccc1OC` the value was 0.88 µg/mL (≈ 3.52 µM); for `COC(=O)/C=C/C(=O)C1CC1`, over 4 µg/mL; for `COC(=O)/C=C/C(=O)c1cccc2ccccc12`, 0.45 µg/mL (≈ 1.87 µM).
For the molecule `COC(=O)/C=C/C(=O)c1ccc(OCc2ccccc2)cc1`, in data set [1], 0.67 µg/mL (≈ 2.26 µM) was the least that counted as inhibitory (MIC).
The same measure, in the same setting: the same measure for `CCOC(=O)/C=C/C(=O)c1cccc(OC)c1`: 0.82 µg/mL (≈ 3.5 µM); for `CCOC(=O)/C=C/C(=O)c1ccc(OC)c(OC)c1`: 0.82 µg/mL (≈ 3.1 µM).
For the molecule `O=C(O)/C=C/C(=O)c1ccc([N+](=O)[O-])cc1`, the MIC in [1] is over 4 µg/mL.
For `Cc1ccc(C(=O)/C=C/C(=O)O)cc1`, the MIC in data set [1] is over 4 µg/mL.
The molecule `CCOC(=O)/C=C/C(=O)c1ccccc1OC` displayed an MIC in data set [1] of 1.82 µg/mL (≈ 7.77 µM).
The same measure, in the same setting: for `O=C(O)/C=C/C(=O)C1CC1` the value was over 4 µg/mL; for `COC(=O)/C=C/C(=O)c1ccccc1OC`, 0.99 µg/mL (≈ 4.5 µM); for `COC(=O)/C=C/C(=O)c1ccc(OC)c(OC)c1`, 0.44 µg/mL (≈ 1.76 µM).
In [1], `COC(=O)/C=C/C(=O)c1ccc(Br)cc1` had an MIC of 0.49 µg/mL (≈ 1.82 µM).
Same read-out and setting: the same measure for `CCOC(=O)/C=C/C(=O)c1ccc2c(c1)OCO2`: 0.49 µg/mL (≈ 1.97 µM); for `CCOc1ccc(C(=O)/C=C/C(=O)OC)cc1`: 0.41 µg/mL (≈ 1.75 µM); for `O=C(O)/C=C/C(=O)c1ccc2c(c1)OCO2`: over 4 µg/mL.
In the case of `CCOC(=O)/C=C/C(=O)c1ccc(OC)cc1`, in data set [1], it took 0.46 µg/mL (≈ 1.96 µM) to inhibit growth (MIC).
Still for that read-out and setting: for `O=C(O)/C=C/C(=O)c1ccc2c(c1)CCO2` the value was over 4 µg/mL; for `O=C(O)/C=C/C(=O)c1ccc(OCc2ccccc2)cc1`, over 4 µg/mL; for `CC(=O)/C=C/C(=O)O`, over 4 µg/mL.
Still for that read-out and setting: for `O=C(O)/C=C/C(=O)C1CCCCC1` the value was over 4 µg/mL.
In data set [1], `COc1ccccc1C(=O)/C=C/C(=O)O` showed an MIC of over 4 µg/mL.
The molecule `CCOC(=O)/C=C/C(=O)c1ccc2c(c1)CCO2` returned an MIC in data set [1] of 0.94 µg/mL (≈ 3.82 µM).
On the same count and under the same terms, for `CCOc1ccc(C(=O)/C=C/C(=O)O)cc1` the value was over 4 µg/mL; for `CCOC(=O)/C=C/C(=O)c1ccc(C)cc1`, over 4 µg/mL; for `O=C(O)/C=C/C(=O)c1ccc(Oc2ccccc2)cc1`, over 4 µg/mL.
Consider `COC(=O)/C=C/C(C)=O`, for which it took 0.86 µg/mL (≈ 6.71 µM) to inhibit growth in data set [1] (MIC).
Still for that read-out and setting: for `COC(=O)/C=C/C(=O)c1ccco1` the value was 0.52 µg/mL (≈ 2.89 µM).
Still for that read-out and setting: for `O=C(O)/C=C/C(=O)c1ccco1` the value was over 4 µg/mL; for `COC(=O)/C=C/C(=O)c1ccc2c(c1)OCO2`, 0.38 µg/mL (≈ 1.62 µM).
Same read-out and setting: the same measure for `O=C(O)/C=C/C(=O)c1cccc2ccccc12`: over 4 µg/mL; for `COC(=O)/C=C/C(=O)c1ccc(Cl)cc1Cl`: 1.85 µg/mL (≈ 7.14 µM); for `COC(=O)/C=C/C(=O)c1ccc([N+](=O)[O-])cc1`: 0.54 µg/mL (≈ 2.3 µM).
`NNC(=O)c1ccncc1` [ISONIAZID] gave an MIC in data set [1] of 0.025 µg/mL (≈ 0.182 µM).
